Data taken from patent US10048254B2, “Cyclic-di-AMP specific detection” (priority 2013, dated 2018).

Experiments:
CabP [1] = target: T1, CabP (Streptococcus pneumoniae, UniProt A0A0H2ZNB5); assay: ELISA on CabP-coated plate, optimization of biotin-AHC-c-di-AMP concentration; format: binding
Method: The binding of c-di-AMP by CabP is very specific with good affinity, therefore, an ELISA method using a solid support coated with CabP to detect c-di-AMP was developed (FIG. 4). The coating concentration of CabP (Table 1) and the concentration of biotin-AHC-c-di-AMP (Table 2) were optimized.
In one embodiment, a 96-well microtiter plate was coated with CabP at 50 μg/ml in coating buffer (3.03 g/L Na2CO3 and 6.0 g/L NaHCO3), 100 μl/well, sealed and incubated overnight at 4° C.
The coating solution was removed by washing three times, that is, by filling the wells with 200 μl phosphate buffered saline (PBS) containing 0.05% (v/v) polysorbate 20 (TWEEN®-20), and aspirating.
The wells of the microtiter plate were then blocked with a blocking solution (1% BSA in PBS), 100 μl/well, and the plate incubated 1 h at room temperature.
To remove the blocking solution, the plates were washed 3 times with PBS containing 0.05% (v/v) polysorbate 20 (TWEEN®-20). 25 nM biotin-labeled c-di-AMP was diluted in 50 mM Tris-HCl (pH 8.0) or other appropriate media/solution and mixed with two-fold serial diluted standards (from 200 nM to 6.25 nM), or samples prepared within 50 mM Tris-HCl (pH 8.0) or the same media/solution. 100 μl/well, incubate 2 h at room temperature.
The standards and the samples were removed, and the wells washed 3 times with PBS containing 0.05% (v/v) polysorbate 20 (TWEEN®-20).
Streptavidin-HRP (Thermo Scientific) diluted at 1:10,000 with PBS containing 0.05% (v/v) polysorbate 20 (TWEEN®-20), was added to the wells, 100 μl/well, and the plate incubated 1 h at room temperature.
The streptavidin-HRP solution was removed by washing the wells 3 times with PBS containing 0.05% (v/v) polysorbate 20 (TWEEN®-20).
A substrate solution [20 ml 0.1 M citric acid (pH 5.0), 20 μl 30% H2O2, and 10 mg o-phenylenediamine (OPD) (Sigma, 1 tablet)], 100 μl/well, was added to each well. After approximately 30 minutes (typical) or sufficient color development, 100 μl/well stop solution (2 N H2SO4) was added to each well. The absorbance of each well was read with a plate reader at 492 nm.

PdxR [2] = assay: Mobility retardation of labeled c-di-AMP in 8% native PAGE gel (control protein); format: binding; details: FIG. 2C
M. tuberculosis DacA = M. tuberculosis DacA (Mycobacterium tuberculosis, UniProt P9WNW5); assay: Mobility retardation of labeled c-di-AMP in 8% native PAGE gel; format: binding; details: purified M. tuberculosis DacA, FIG. 2C
Method: (§1) The interaction between CabP and c-di-AMP was evaluated by multiple approaches. […] Proteins in the other half gel were transferred onto PVDF membrane and incubated with [α-^32P]c-di-AMP, which we generated from [α-^32P]ATP (MP Biomedicals) using purified Mycobacterium tuberculosis DacA (2). […] We then incubate labeled c-di-AMP with various concentration of CabP in the reaction with 50 mM Tris-HCl (pH7.5), 10 mM MgCl2, 5 mM CaCl2, 5 mM KCl, and 10% (v/v) glycerol. The samples were incubated for 30 min at room temperature and then separated the reactions with 8% native PAGE gel (3). […] However, the mobility of c-di-AMP was not retarded by PdxR (FIG. 2C), indicating the specificity.

CabP [3] = target: T1, CabP; assay: as above; format: binding; details: 30 min at room temperature, FIG. 2B, read-out: affinity constant
Method: as §1

CabP [4] = target: T1, CabP; assay: Competition of unlabeled nucleotides with labeled c-di-AMP for CabP, native gel; format: binding; details: 1,000-fold excess of unlabeled nucleotide, 1 μM CabP, FIG. 2D
Method: FIGS. 2A-D Interaction of CabP with c-di-AMP. (A) CabP and PdxR (control) were loaded for SDS-PAGE. Gels were either stained with Coomassie Bright Blue (Staining) or blotted with labeled c-di-AMP (Blotting). M, molecular weight marker (Fisher Scientific). (B) Separation of CabP and c-di-AMP reactions with 8% native gel. (C) Mobility of c-di-AMP in the presence or absence of the indicated proteins. (D) Mobility of labeled c-di-AMP mixed with 1 μM CabP in the presence or absence of the indicated unlabeled nucleotides. “cold nt” refers to unlabeled nucleotide.
as §1

biotin-labeled c-di-AMP = assay: Binding of truncated forms of CabP to biotin-labeled c-di-AMP; details: proteins expressed from pET28a(+)
From the text: To investigate the c-di-AMP binding region of CabP, truncated forms of CabP were expressed and their ability to bind c-di-AMP examined.
Truncated forms included: P1, in which 15 amino acids were removed from the N-terminal of CabP; P2, which results from the removal of 94 amino acid residues from the C-terminal of CabP, thereby eliminating the TrkA_C region; and P3, in which both N- and C-terminal ends of CabP are truncated.
All PCR products were cloned into pET28a(+) to express P1, P2, and P3. These proteins were then used to evaluate their interaction with c-di-AMP.
No binding of P1, P2 or P3 was observed using biotin-labeled c-di-AMP, while binding to intact CabP expressed from pST2788 was normal.

PdxR [5] = format: binding; details: PdxR control on PVDF membrane, FIG. 2A
CabP [6] = target: T1, CabP; assay: Blot of SDS-PAGE-separated protein on PVDF membrane incubated with [α-32P]c-di-AMP; format: binding; details: FIG. 2A
Method: as §1

T1 sequence (A0A0H2ZNB5 whole entry, added parts left off): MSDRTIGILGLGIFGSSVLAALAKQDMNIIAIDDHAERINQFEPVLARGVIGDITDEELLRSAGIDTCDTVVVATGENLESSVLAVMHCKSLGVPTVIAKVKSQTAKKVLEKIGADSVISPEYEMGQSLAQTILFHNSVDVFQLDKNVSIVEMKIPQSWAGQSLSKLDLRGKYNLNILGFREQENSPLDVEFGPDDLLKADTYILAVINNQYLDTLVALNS
Sequence of M. tuberculosis DacA (P9WNW5 whole entry): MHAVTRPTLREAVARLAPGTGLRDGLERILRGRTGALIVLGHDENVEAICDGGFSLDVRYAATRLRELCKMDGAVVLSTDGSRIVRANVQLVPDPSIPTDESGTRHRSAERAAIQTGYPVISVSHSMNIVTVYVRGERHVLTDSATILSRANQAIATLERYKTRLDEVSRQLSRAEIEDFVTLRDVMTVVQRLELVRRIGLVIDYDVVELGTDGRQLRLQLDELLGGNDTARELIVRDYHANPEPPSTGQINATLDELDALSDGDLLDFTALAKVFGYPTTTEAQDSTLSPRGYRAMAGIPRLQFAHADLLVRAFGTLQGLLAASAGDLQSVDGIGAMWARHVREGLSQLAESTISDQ

biotin-AHC-c-di-AMP [B-c-di-AMP]
ELISA signal, Binding Buffer (CabP [1]; [B-c-di-AMP] 0.78125): 0.158 | ELISA signal, Binding Buffer (CabP [1]; [B-c-di-AMP] 1.5625): 0.2503 | ELISA signal, Binding Buffer (CabP [1]; [B-c-di-AMP] 3.125): 0.4685 | ELISA signal, Binding Buffer (CabP [1]; [B-c-di-AMP] 6.25): 0.7071 | ELISA signal, Binding Buffer (CabP [1]; [B-c-di-AMP] 12.5): 0.8821 | ELISA signal, Binding Buffer (CabP [1]; [B-c-di-AMP] 25): 1.1813 | ELISA signal, Binding Buffer (CabP [1]; [B-c-di-AMP] 50): 1.352 | ELISA signal, Binding Buffer (CabP [1]; [B-c-di-AMP] 100): 1.4377

Nc1ncnc2c1ncn2[C@@H]1O[C@@H]2COP(=O)(O)O[C@H]3[C@@H](O)[C@H](n4cnc5c(N)ncnc54)O[C@@H]3COP(=O)(O)O[C@H]2[C@H]1O [c-di-AMP, cyclic di-adenosine monophosphate]
retardation of c-di-AMP mobility (PdxR [2]): not retarded | retardation of c-di-AMP mobility (M. tuberculosis DacA): retardation was also observed | Kd (CabP [3]): ~150 nM | free labeled c-di-AMP in the presence of unlabeled nucleotide (CabP [4]): free c-di-AMP could be observed

CabP
binding to biotin-labeled c-di-AMP (biotin-labeled c-di-AMP): normal

[α-^32P]c-di-AMP [labeled c-di-AMP]
binding of labeled c-di-AMP to blotted protein (PdxR [5]): not | binding of labeled c-di-AMP to blotted protein (CabP [6]): bound
